Among the data in PubChem BioAssay AID330 (DTP/NCI, 2004) are T/C values, retold here.

Structures are written as SMILES. Where “and” joins values, the source holds several entries; their conditions need not be identical. Identical values can stand only once. Inconclusive results and toxic doses are left out.

The experiment concerns P388 leukemia ip, CD2F1 mice, survival T/C. As to the kind of experiment: NCI In Vivo Anticancer Drug Screen. Data for tumor model P388 Leukemia (intraperitoneal) in CD2F1 (CDF1) mice. The following applies: endpoint: median survival time, higher = longer survival. A digest of the protocol: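 Mice carrying the transplanted tumor received test compound or vehicle. Survival was recorded in each group, and the value is the treated-group measurement divided by that of the vehicle-treated control group.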

[1] abbreviates: dose: 25.0 mg/kg/injection, schedule: Q01DX009 (ip), vehicle: saline with Tween-80.
The mark [2] stands for this setting: dose: 100.0 mg/kg/injection, schedule: Q04DX003 (ip), vehicle: saline with Tween-80.
The mark [3] stands for this setting: dose: 200.0 mg/kg/injection, schedule: Q04DX003 (ip), vehicle: saline with Tween-80.
Where [4] appears, read: dose: 400.0 mg/kg/injection, schedule: Q04DX003 (ip), vehicle: saline with Tween-80.
[5] abbreviates: dose: 60.0 mg/kg/injection, schedule: Q01DX005 (ip), vehicle: saline with Tween-80.
Setting [6] is: dose: 120.0 mg/kg/injection, schedule: Q01DX005 (ip), vehicle: saline with Tween-80.
Where [7] appears, read: dose: 50.0 mg/kg/injection, schedule: Q01DX005 (ip), vehicle: saline.
The mark [8] stands for this setting: dose: 240.0 mg/kg/injection, schedule: Q01DX005 (ip), vehicle: saline with Tween-80.

In the case of `C1CC[N-]CC1.C1CC[N-]CC1.C1CC[N-]CC1.[Cl][Rh]([Cl])[Cl]`, the T/C is 100 % of control and 96 % of control (dose: 1.0 mg/kg/injection, schedule: Q03HX024 (ip), vehicle: saline); 97 % of control (dose: 2.0 mg/kg/injection, schedule: Q03HX016 (ip), vehicle: saline); 96 % of control and 98 % of control (dose: 2.0 mg/kg/injection, schedule: Q03HX024 (ip), vehicle: saline); 98 % of control (dose: 4.0 mg/kg/injection, schedule: Q01DX009 (ip), vehicle: saline); 96 % of control (dose: 4.0 mg/kg/injection, schedule: Q03HX016 (ip), vehicle: saline); 96 % of control (dose: 4.0 mg/kg/injection, schedule: Q03HX024 (ip), vehicle: saline). Also, the T/C (dose: 8.0 mg/kg/injection, schedule: Q03HX016 (ip), vehicle: saline) was 110 % of control and 96 % of control; the T/C (dose: 8.0 mg/kg/injection, schedule: Q03HX024 (ip), vehicle: saline) is 97 % of control; the T/C (dose: 8.0 mg/kg/injection, schedule: Q04DX003 (ip), vehicle: saline) is 100 % of control; the T/C (dose: 16.0 mg/kg/injection, schedule: Q01DX001 (ip), vehicle: saline) was 110 % of control; the T/C (dose: 16.0 mg/kg/injection, schedule: Q03HX008 (ip), vehicle: saline) is 119 % of control; the T/C (dose: 16.0 mg/kg/injection, schedule: Q03HX024 (ip), vehicle: saline) was 97 % of control. Moreover, the T/C by setting is: under setting [1], 154 % of control; (dose: 32.0 mg/kg/injection, schedule: Q01DX009 (ip), vehicle: saline) 118 % of control; (dose: 32.0 mg/kg/injection, schedule: Q03HX008 (ip), vehicle: saline) 110 % of control; (dose: 32.0 mg/kg/injection, schedule: Q03HX016 (ip), vehicle: saline) 96 % of control; (dose: 32.0 mg/kg/injection, schedule: Q03HX024 (ip), vehicle: saline) 96 % of control and 97 % of control; (dose: 64.0 mg/kg/injection, schedule: Q01DX001 (ip), vehicle: saline) 110 % of control. In addition, the T/C is 118 % of control (dose: 64.0 mg/kg/injection, schedule: Q01DX009 (ip), vehicle: saline) and 110 % of control (dose: 64.0 mg/kg/injection, schedule: Q08DX002 (ip), vehicle: saline).
Turning to `NC(=O)NC1CCCCCC1`, the T/C under setting [2] was 100 % of control, the T/C under setting [3] is 100 % of control and the T/C under setting [4] is 109 % of control.
On to `C=CCCCCCCCCC(=O)NCC(C)C`, for which the T/C is, setting by setting: under setting [2], 86 % of control; under setting [3], 95 % of control; under setting [4], 100 % of control.
In the case of `Brc1ccc(Nc2c3ccccc3nc3ccccc23)cc1`, the T/C is 95 % of control (dose: 50.0 mg/kg/injection, schedule: Q04DX003 (ip), vehicle: saline with Tween-80) and 100 % of control under setting [2].
On to `CCN(CC)CCOC(=O)Nc1cc(C)cc(C)c1`, for which the T/C was 94 % of control under setting [5] and 91 % of control under setting [6].
For the molecule `c1ccc(CCn2cccc/c2=N/C(=NC2CCCCC2)NC2CCCCC2)cc1`, the T/C (dose: 100.0 mg/kg/injection, schedule: Q01DX001 (ip), vehicle: suspension in saline) was 91 % of control; the T/C (dose: 200.0 mg/kg/injection, schedule: Q01DX001 (ip), vehicle: suspension in saline) was 88 % of control; the T/C (dose: 400.0 mg/kg/injection, schedule: Q01DX001 (ip), vehicle: suspension in saline) was 92 % of control.
In the case of `COC(=O)C1(N)CCCC1`, the T/C reads like this: (dose: 100.0 mg/kg/injection, schedule: Q04DX003 (ip), vehicle: saline) 90 % of control; (dose: 200.0 mg/kg/injection, schedule: Q04DX003 (ip), vehicle: saline) 113 % of control; (dose: 400.0 mg/kg/injection, schedule: Q04DX003 (ip), vehicle: saline) 109 % of control.
`COc1c(OC2OC(CO)C(O)C(O)C2O)cc2c(c1OC)-c1ccc(OC)c(=O)cc1C(NC(C)=O)CC2` (stereo unspecified): the T/C is, setting by setting: (dose: 12.5 mg/kg/injection, schedule: Q01DX005 (ip), vehicle: saline) 108 % of control; (dose: 25.0 mg/kg/injection, schedule: Q01DX005 (ip), vehicle: saline) 106 % of control; under setting [7], 117 % of control and 121 % of control.
On to `Cc1ccc(/C=C/C(=O)/C=C/c2ccc(C)o2)o1`, for which the T/C (dose: 25.0 mg/kg/injection, schedule: Q01DX005 (ip), vehicle: DMSO) is 107 % of control; the T/C (dose: 50.0 mg/kg/injection, schedule: Q01DX005 (ip), vehicle: DMSO) is 104 % of control; the T/C (dose: 50.0 mg/kg/injection, schedule: Q01DX005 (ip), vehicle: saline with Tween-80) was 99 % of control; the T/C (dose: 100.0 mg/kg/injection, schedule: Q01DX005 (ip), vehicle: DMSO) was 104 % of control; the T/C (dose: 100.0 mg/kg/injection, schedule: Q01DX005 (ip), vehicle: saline with Tween-80) is 96 % of control; the T/C (dose: 200.0 mg/kg/injection, schedule: Q01DX005 (ip), vehicle: DMSO) was 97 % of control. Also, the T/C reads like this: (dose: 200.0 mg/kg/injection, schedule: Q01DX005 (ip), vehicle: saline with Tween-80) 100 % of control; (dose: 400.0 mg/kg/injection, schedule: Q01DX005 (ip), vehicle: DMSO) 101 % of control.
In the case of `C=CCN1CCC23c4c5ccc(O)c4OC2C(=NN=C2CCC4(O)C6Cc7ccc(O)c8c7C4(CCN6CC=C)C2O8)CCC3(O)C1C5` (stereo unspecified), the T/C reads like this: (dose: 15.0 mg/kg/injection, schedule: Q01DX005 (ip), vehicle: saline with Tween-80) 92 % of control; (dose: 30.0 mg/kg/injection, schedule: Q01DX005 (ip), vehicle: saline with Tween-80) 90 % of control; under setting [5], 100 % of control and 101 % of control.
On to `COc1nc(NC2OCC(OC(C)=O)C(OC(C)=O)C2OC(C)=O)c(N=C(C)C(C)=O)c(=O)n1C` (stereo unspecified), for which the T/C by setting is: under setting [5], 86 % of control; under setting [6], 92 % of control; under setting [8], 94 % of control.
`CC(O)C(=O)N1Cc2cc3ccccc3nc2C1` (stereo unspecified): the T/C is 94 % of control (dose: 4.0 mg/kg/injection, schedule: Q01DX009 (ip), vehicle: saline with Tween-80); 89 % of control (dose: 8.0 mg/kg/injection, schedule: Q01DX009 (ip), vehicle: saline with Tween-80); 92 % of control (dose: 16.0 mg/kg/injection, schedule: Q01DX009 (ip), vehicle: saline with Tween-80); 90 % of control (dose: 32.0 mg/kg/injection, schedule: Q01DX009 (ip), vehicle: saline with Tween-80); 91 % of control (dose: 64.0 mg/kg/injection, schedule: Q01DX009 (ip), vehicle: saline with Tween-80).
For the molecule `CC(C)(C)NC(Cc1ccccc1)=NC1CCCCC1`, the T/C (dose: 12.5 mg/kg/injection, schedule: Q04DX002 (ip), vehicle: saline) is 103 % of control and the T/C (dose: 25.0 mg/kg/injection, schedule: Q04DX002 (ip), vehicle: saline) is 101 % of control.
In the case of `NC1CCCCCC1`, the T/C is, setting by setting: under setting [7], 110 % of control; (dose: 100.0 mg/kg/injection, schedule: Q01DX005 (ip), vehicle: saline) 86 % of control.
As for `CCCn1cnc2c(=S)nc[nH]c21`, the T/C was 86 % of control under setting [1]; 90 % of control (dose: 50.0 mg/kg/injection, schedule: Q01DX009 (ip), vehicle: saline with Tween-80); 109 % of control (dose: 100.0 mg/kg/injection, schedule: Q01DX009 (ip), vehicle: saline with Tween-80).
Regarding `CCN(CC)c1ccc(N=Nc2nc(Cl)c(/C=C3\C(=O)c4ccccc4C3=C(C#N)C#N)s2)c(NC(C)=O)c1`, the T/C by setting is: under setting [5], 96 % of control; under setting [6], 97 % of control; under setting [8], 95 % of control.
`Cn1cnc([N+](=O)[O-])c1Sc1n[nH]c(N)n1`: the T/C was 111 % of control (dose: 50.0 mg/kg/injection, schedule: Q01DX005 (ip), vehicle: Klucel (hydroxypropylcellulose) (HPC)); 117 % of control (dose: 100.0 mg/kg/injection, schedule: Q01DX005 (ip), vehicle: Klucel (hydroxypropylcellulose) (HPC)); 108 % of control (dose: 200.0 mg/kg/injection, schedule: Q01DX005 (ip), vehicle: Klucel (hydroxypropylcellulose) (HPC)).
Take `O=P(N1CCCC1)(N1CC1)N1CC1`: the T/C (dose: 6.25 mg/kg/injection, schedule: Q01DX009 (ip), vehicle: saline) was 109 % of control; the T/C (dose: 8.3 mg/kg/injection, schedule: Q04DX003 (ip), vehicle: saline) was 172 % of control; the T/C (dose: 12.5 mg/kg/injection, schedule: Q01DX009 (ip), vehicle: saline) is 90 % of control; the T/C (dose: 12.5 mg/kg/injection, schedule: Q04DX003 (ip), vehicle: saline) is 209 % of control; the T/C (dose: 18.7 mg/kg/injection, schedule: Q04DX003 (ip), vehicle: saline) is 236 % of control.
